Test results taken from US5362729A, “Dihydropyridine derivatives useful in antitumor therapy” (Farmitalia Carlo ERBA S.r.l., priority 1991, dated 1994).
Read-outs that look alike come from different tables or passages of the source.

Experiments:
[1] = orientative acute toxicity after single oral administration to mice; conditions: mouse, in vivo, assessed on the seventh day
Experimental: Mice which had been deprived of food for nine hours were treated orally with single administrations of increasing doses of compounds of the invention, then housed and normally fed. For example the orientative acut toxicity (LD50) of the compound FCE 24265, assessed on the seventh day after treatment, was higher than 800 mg/kg. In view of their low toxicity the compounds of the invention can be safely used in medicine.

[2] = tested on: LoVo cells; assay: single-cell plating technique, colony-inhibiting efficacy of Doxorubicin alone or in combination on Doxorubicin-sensitive cells; assay type: cell-based, human; conditions: Doxorubicin alone
Experimental: (§1) LoVo and LoVo/DX cells (human colon adenocarcinoma cell lines sensitive and resistant to Doxorubicin, respectively) were maintained at 37° C. in a humidified atmosphere of 5% CO2. Culture medium was Ham's F12 supplemented with 10% foetal calf serum, 1% vitamins (BME vitamin solution 100 X), and 1% glutamine (200 mM). Both cell lines were passaged twice weekly.
(§2) Doxorubicin, from Farmitalia Carlo erba, was dissolved in sterile water, and the concentrations were checked spectro-photometrically. Solutions of the compounds of the invention using ethanol were prepared immediately before use.
(§3) A single-cell plating technique was utilized for measuring the colony-inhibiting efficacy of drugs alone or drug combinations.
(§4) Exponentially growing LoVo and LoVo/DX cells were adjusted to the concentration of 300 cells.ml^-1 and seeded in 36mm Petri dishes (2 ml/dish).
(§5) After 48h incubation, medium was withdrawn and solutions of invention compounds alone, or Doxorubicin alone or solutions of the combination of both compounds, were added. […]
(§6) Survival was determined as the percentage of colonies in treated samples vs untreated ones. For combination of the compounds of the invention and doxorubicin, survival was calculated using as controls the number of colonies in samples treated with compounds of the invention alone.

[3] = tested on: LoVo/DX cells; assay: single-cell plating technique, colony-inhibiting efficacy of Doxorubicin alone or in combination on Doxorubicin-resistant cells; assay type: cell-based, human
Experimental: as §1, §2, §3, §4, §5, §6

Row | SMILES | LD50 at 168 h [1] [mg/kg] | IC50 [2] [µg/mL] | IC50 ([2]; Homo sapiens, LoVo, read-out: IC50) [µg/mL] | R.I. (Resistance Index) ([3]; Doxorubicin alone, LoVo/DX vs LoVo cells, 240 min) | IC50 ([3]; Homo sapiens, LoVo/DX, 4 h, read-out: IC50 = Concentration inhibiting 50% of colony formation) [µg/mL]
1 | CCOC(=O)C1=C(C)NC(C)=C(C(=O)OCC)C1c1cccc(-n2ccnc2)c1 [FCE 24265, 1,4-Dihydro-2,6-dimethyl-4-[3-(1H-imidazol-1-yl)phenyl]-3,5-pyridinedicarboxylic acid, diethyl ester] | > 800 |  |  |  | 
2 | COc1cccc2c1C(=O)c1c(O)c3c(c(O)c1C2=O)C[C@@](O)(C(=O)CO)C[C@@H]3O[C@H]1C[C@H](N)[C@H](O)[C@H](C)O1 [Doxorubicin] |  | 0.1 | ~0.1 | 49.1 | 4.91
